pEC50, pIC50: −log10 of the molar value.
Key:
human TLR8 = biological target: T1, human TLR8 (Homo sapiens, UniProt Q9NR97); test: In vitro human TLR8 binding reporter assay (HEK-Blue, NF-kB/AP1-inducible SEAP); format: cell-based; conditions: HEK-Blue human TLR8 SEAP reporter cells; activity range classes; read-out: TLR8 Agonist EC50
T1 construct: host or cells: human HEK-Blue cells (HEK293-derived) co-expressing TLR8 and an NF-kB/AP1-inducible SEAP reporter
T1 sequence (Q9NR97 27-1041): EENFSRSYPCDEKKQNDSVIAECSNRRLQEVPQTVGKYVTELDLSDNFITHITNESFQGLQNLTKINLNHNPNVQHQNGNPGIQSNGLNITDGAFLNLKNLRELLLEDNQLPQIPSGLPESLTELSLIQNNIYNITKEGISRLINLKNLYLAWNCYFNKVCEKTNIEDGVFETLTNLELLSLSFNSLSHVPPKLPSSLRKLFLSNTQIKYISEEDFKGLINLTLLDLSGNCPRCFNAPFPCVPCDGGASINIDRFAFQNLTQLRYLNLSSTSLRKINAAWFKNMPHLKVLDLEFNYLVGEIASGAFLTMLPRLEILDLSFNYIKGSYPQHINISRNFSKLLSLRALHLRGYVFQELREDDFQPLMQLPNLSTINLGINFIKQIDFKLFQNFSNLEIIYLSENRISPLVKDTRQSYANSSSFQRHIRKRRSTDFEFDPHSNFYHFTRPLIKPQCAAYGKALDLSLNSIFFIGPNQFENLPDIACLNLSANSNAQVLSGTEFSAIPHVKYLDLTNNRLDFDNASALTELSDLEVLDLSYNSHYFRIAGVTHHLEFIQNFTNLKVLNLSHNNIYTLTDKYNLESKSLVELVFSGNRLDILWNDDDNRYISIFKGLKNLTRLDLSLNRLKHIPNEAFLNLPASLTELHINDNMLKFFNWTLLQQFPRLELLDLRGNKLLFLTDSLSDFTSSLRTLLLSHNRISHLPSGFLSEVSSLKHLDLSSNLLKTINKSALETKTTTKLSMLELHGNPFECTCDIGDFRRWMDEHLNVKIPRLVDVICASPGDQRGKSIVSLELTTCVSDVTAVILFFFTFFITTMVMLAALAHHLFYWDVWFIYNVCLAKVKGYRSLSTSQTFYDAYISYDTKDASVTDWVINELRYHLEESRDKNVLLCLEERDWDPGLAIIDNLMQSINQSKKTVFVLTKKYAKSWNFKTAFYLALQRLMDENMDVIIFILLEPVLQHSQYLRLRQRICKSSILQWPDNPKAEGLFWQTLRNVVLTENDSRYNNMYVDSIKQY
Protocol: (§1) In Vitro Human TLR7 and TLR8 Binding Reporter Assays
(§2) Logarithmically-growing human HEK-Blue cells co-expressing a TLR7 or TLR8 gene and a NF-kB/AP1-inducible SEAP (secreted embryonic alkaline phosphatase; Invivogen, San Diego, CA) reporter gene are added to individual wells of a 384-well plate (15,000 cells per 20 μL per well) and maintained for 24 h at 37° C., 5% CO2. Test compounds or DMSO are distributed to separate wells the next day using acoustic liquid handling technology (100 nL per well) and cells are subsequently incubated for 18 h at 37° C., 5% CO2. Cellular SEAP production is measured using an Envision plate reader instrument thirty minutes after adding freshly-made Quanti-Blue reagent (prepared by following manufacturer instructions; Invivogen, San Diego, CA) to the HEK-Blue TLR Nf-kB-SEAP cell reactions. All EC50 values (half-maximal effective concentration) are determined using proprietary data analysis software. Normalized EC50 value=absolute value determined by setting 100% Ymax using a reference standard RLU (relative light unit) values from cells treated with 50 μM of the reference standard.

human TLR7 = biological target: T2, human TLR7 (Homo sapiens, UniProt Q9NYK1); test: In vitro human TLR7 binding reporter assay (HEK-Blue, NF-kB/AP1-inducible SEAP); format: cell-based; conditions: HEK-Blue human TLR7 SEAP reporter cells; activity range classes; read-out: TLR7 Agonist EC50
T2 construct: host or cells: human HEK-Blue cells (HEK293-derived) co-expressing TLR7 and an NF-kB/AP1-inducible SEAP reporter
T2 sequence (Q9NYK1 27-1049): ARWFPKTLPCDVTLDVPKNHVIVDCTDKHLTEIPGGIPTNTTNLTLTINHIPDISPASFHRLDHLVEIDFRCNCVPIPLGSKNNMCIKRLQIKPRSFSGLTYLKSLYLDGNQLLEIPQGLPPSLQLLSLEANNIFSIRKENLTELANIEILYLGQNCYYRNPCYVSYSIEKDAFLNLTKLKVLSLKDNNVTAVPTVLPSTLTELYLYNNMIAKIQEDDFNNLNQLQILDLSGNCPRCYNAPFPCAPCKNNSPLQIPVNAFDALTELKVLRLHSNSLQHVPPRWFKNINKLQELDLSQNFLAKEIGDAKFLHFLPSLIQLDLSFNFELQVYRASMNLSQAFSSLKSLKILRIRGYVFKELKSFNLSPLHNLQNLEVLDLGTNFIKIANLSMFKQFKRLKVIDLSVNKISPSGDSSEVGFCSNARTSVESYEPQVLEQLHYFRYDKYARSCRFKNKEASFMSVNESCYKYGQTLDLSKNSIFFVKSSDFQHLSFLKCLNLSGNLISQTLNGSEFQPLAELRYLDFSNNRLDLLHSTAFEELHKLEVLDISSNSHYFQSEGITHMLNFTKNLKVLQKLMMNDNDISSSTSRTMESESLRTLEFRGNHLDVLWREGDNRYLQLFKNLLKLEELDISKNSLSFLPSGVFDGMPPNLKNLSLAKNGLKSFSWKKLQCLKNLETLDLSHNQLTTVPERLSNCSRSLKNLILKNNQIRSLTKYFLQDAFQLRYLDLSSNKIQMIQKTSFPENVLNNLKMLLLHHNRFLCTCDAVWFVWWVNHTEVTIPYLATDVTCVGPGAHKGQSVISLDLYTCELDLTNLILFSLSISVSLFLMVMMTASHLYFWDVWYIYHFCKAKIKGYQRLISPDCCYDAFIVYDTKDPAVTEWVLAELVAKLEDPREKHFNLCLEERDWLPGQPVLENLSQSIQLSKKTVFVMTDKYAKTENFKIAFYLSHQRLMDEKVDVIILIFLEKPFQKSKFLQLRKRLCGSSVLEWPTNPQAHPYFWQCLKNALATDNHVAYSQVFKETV
Protocol: as §1, §2

[1] = test system: IL-1β production in PMA-differentiated THP-1 cells; test: Measurement of IL-1β production in PMA-differentiated THP-1 cells (ELISA, 4 hours); format: cell-based, human; conditions: Homo sapiens, THP-1, human IL-1β production, assayed using one or more of the described procedures, read-out: NLRP3 hIL1B IC50
Protocol: Measurement of IL-1β Production in PMA-Differentiated THP-1 Cells THP-1 cells were purchased from the American Type Culture Collection and sub-cultured according to instructions from the supplier. Prior to experiments, cells were cultured in RPMI 1640 containing 10% heat inactivated FBS, penicillin (100 units/ml) and streptomycin (100 μg/ml), and maintained in log phase prior to experimental setup. Prior to the experiment THP-1 were treated with PMA (Phorbol 12-myristate 13-acetate) (10 μg/ml) for 24 hours. The day of the experiment the media was removed and attaching cells were treated with trypsin for 2 minutes, cells were then collected, washed with PBS (phosphate buffer saline), spin down, resuspended in 2% heat inactivated FBS with RPMI at a concentration of 1×10^6 cells/ml, and 100 μl was plated in a 96 well plate. Compounds were dissolved in dimethyl sulfoxide (DMSO) and added to the culture medium to achieve desired concentration (e.g. 100, 30, 10, 3, 1, 0.3 or 0.1 μM). Cells were incubated with compounds for 4 hours. Cell free supernatant was collected and the production of IL-1β was evaluated by ELISA. A vehicle only control was run concurrently with each experiment. Final DMSO concentration was 1%.

SMILES: Nc1cc(CCCO)c2ccc(-c3ccsn3)cc2n1 [Compound 219, 3-(2-amino-7-(isothiazol-3-yl)quinolin-4-yl)propan-1-ol]
- pEC50 (human TLR8): < 4.00
- pEC50 (human TLR7): < 4.00
- pIC50 [1]: 5.56

SMILES: Nc1cc(N[C@H]2CCCOC2)c2ccc(-c3ccn[nH]3)cc2n1 [Compound 288]
- pEC50 (human TLR8): < 4.00
- pEC50 (human TLR7): < 4.00
- pIC50 [1]: 6.41

SMILES: Nc1cc(OC[C@@H](O)CO)c2ccc(-c3ccn[nH]3)cc2n1 [Compound 220, (S)-3-((2-amino-7-(1H-pyrazol-5-yl)quinolin-4-yl)oxy)propane-1,2-diol]
- pEC50 (human TLR8): < 4.00
- pEC50 (human TLR7): < 4.00
- pIC50 [1]: 6.24

SMILES: CC(C)(O)CNc1cc(N)nc2cc(-n3cccn3)ccc12 [Compound 176]
- pEC50 (human TLR8): < 4.00
- pEC50 (human TLR7): < 4.00
- pIC50 [1]: 6.15

SMILES: Nc1cc(OC(CO)CO)c2ccc(-c3ccn[nH]3)cc2n1 [Compound 202, 2-((2-amino-7-(1H-pyrazol-5-yl)quinolin-4-yl)oxy)propane-1,3-diol]
- pEC50 (human TLR8): < 4.00
- pEC50 (human TLR7): < 4.00
- pIC50 [1]: 5.72

SMILES: Nc1cc(NC[C@@H](O)CO)c2ccc(-c3ccn[nH]3)cc2n1 [Compound 287]
- pEC50 (human TLR8): < 4.00
- pEC50 (human TLR7): < 4.00
- pIC50 [1]: 6.15

SMILES: Nc1cc(OCC2(CO)CCC2)c2ccc(-c3ccn[nH]3)cc2n1 [Compound 335]
- pEC50 (human TLR8): < 4.00
- pEC50 (human TLR7): < 4.00
- pIC50 [1]: 6.20

SMILES: CC(C)(CO)COc1cc(N)nc2cc(-c3ccn[nH]3)ccc12 [Compound 310]
- pEC50 (human TLR8): < 4.00
- pEC50 (human TLR7): < 4.00
- pIC50 [1]: 6.96

SMILES: Nc1cc(NCc2ncc[nH]2)c2ccc(-n3cccn3)cc2n1 [Compound 298]
- pEC50 (human TLR8): < 4.00
- pEC50 (human TLR7): < 4.00
- pIC50 [1]: 6.82

SMILES: Nc1cc(OCC(=O)N2CCCC2)c2ccc(-c3ccn[nH]3)cc2n1 [Compound 183]
- pEC50 (human TLR8): < 4.00
- pEC50 (human TLR7): < 4.00
- pIC50 [1]: 5.08

SMILES: Nc1cc(NCCc2nccs2)c2ccc(-n3cccn3)cc2n1 [Compound 297]
- pEC50 (human TLR8): < 4.00
- pEC50 (human TLR7): < 4.00
- pIC50 [1]: 6.24

SMILES: Nc1cc(OCCn2cccn2)c2ccc(-c3ccn[nH]3)cc2n1 [Compound 201]
- pEC50 (human TLR8): < 4.00
- pEC50 (human TLR7): < 4.00
- pIC50 [1]: 5.30

SMILES: Nc1cc(NCC(O)c2cccnc2)c2ccc(-c3ccn[nH]3)cc2n1 (stereo not drawn) [Compound 154]
- pEC50 (human TLR8): < 4.00
- pEC50 (human TLR7): < 4.00
- pIC50 [1]: 6.36

SMILES: CC(=O)NCCCOc1cc(N)nc2cc(-c3ccn[nH]3)ccc12 [Compound 200]
- pEC50 (human TLR8): < 4.00
- pEC50 (human TLR7): < 4.00
- pIC50 [1]: 5.72

SMILES: Cn1cncc1CNc1cc(N)nc2cc(-c3ccn[nH]3)ccc12 [Compound 252]
- pEC50 (human TLR8): < 4.00
- pEC50 (human TLR7): < 4.00
- pIC50 [1]: 5.77

SMILES: Nc1cc(OC2CCOCC2)c2ccc(-c3ccn[nH]3)cc2n1 [Compound 186]
- pEC50 (human TLR8): < 4.00
- pEC50 (human TLR7): < 4.00
- pIC50 [1]: 5.97

SMILES: Nc1cc(NCC2CCOCC2)c2ccc(-c3ccn[nH]3)cc2n1 [Compound 137]
- pEC50 (human TLR8): < 4.00
- pEC50 (human TLR7): < 4.00
- pIC50 [1]: 6.26

SMILES: Nc1cc(NC[C@@H]2COCCN2)c2ccc(-c3ccn[nH]3)cc2n1 [Compound 268]
- pEC50 (human TLR8): < 4.00
- pEC50 (human TLR7): < 4.00
- pIC50 [1]: 6.01

SMILES: Nc1cc(NCCO)c2ccc(-n3cccn3)cc2n1 [Compound 296]
- pEC50 (human TLR8): < 4.00
- pEC50 (human TLR7): < 4.00
- pIC50 [1]: 6.25

SMILES: Nc1cc(NCCCNC(=O)c2cccnc2)c2ccc(-c3ccn[nH]3)cc2n1 [Compound 212]
- pEC50 (human TLR8): < 4.00
- pEC50 (human TLR7): < 4.00
- pIC50 [1]: 5.03

SMILES: Nc1cc(NCCc2cccs2)c2ccc(-c3cc[nH]n3)cc2n1 [Compound 322, 7-(1H-pyrazol-3-yl)-N4-(2-(thiophen-2-yl)ethyl)quinoline-2,4-diamine]
- pEC50 (human TLR8): < 4.00
- pEC50 (human TLR7): < 4.00
- pIC50 [1]: 6.21

SMILES: CCO[C@H]1COC[C@@H]1Nc1cc(N)nc2cc(-c3ccn[nH]3)ccc12 [Compound 291]
- pEC50 (human TLR8): < 4.00
- pEC50 (human TLR7): < 4.00
- pIC50 [1]: 5.78

SMILES: Nc1cc(NC[C@H](O)CO)c2ccc(-c3ccn[nH]3)cc2n1 [Compound 153]
- pEC50 (human TLR8): < 4.00
- pEC50 (human TLR7): < 4.00
- pIC50 [1]: 5.95

SMILES: CN(C)C1CCN(Cc2cc3ccc(-c4ccn[nH]4)cc3nc2N)CC1 [Compound 118]
- pEC50 (human TLR8): < 4.00
- pEC50 (human TLR7): < 4.00
- pIC50 [1]: 5.76

SMILES: Nc1cc(NCCc2cnc[nH]2)c2ccc(-c3ccn[nH]3)cc2n1 [Compound 225]
- pEC50 (human TLR8): < 4.00
- pEC50 (human TLR7): < 4.00
- pIC50 [1]: 6.89

SMILES: CN(CCO)c1cc(N)nc2cc(-c3ccn[nH]3)ccc12 [Compound 136]
- pEC50 (human TLR8): < 4.00
- pEC50 (human TLR7): < 4.00
- pIC50 [1]: 5.52

SMILES: Nc1cc(N2CCC(O)CC2)c2ccc(-c3ccn[nH]3)cc2n1 [Compound 145]
- pEC50 (human TLR8): < 4.00
- pEC50 (human TLR7): < 4.00
- pIC50 [1]: 5.59

SMILES: Nc1cc(NCCCO)c2ccc(-n3cccn3)cc2n1 [Compound 173, 3-((2-amino-7-(1H-pyrazol-1-yl)quinolin-4-yl)amino)propan-1-ol]
- pEC50 (human TLR8): < 4.00
- pEC50 (human TLR7): < 4.00
- pIC50 [1]: 6.55

Reference: US12171756B2, “NLRP3 modulators” (Innate Tumor Immunity, Inc., priority 2017, dated 2024)
